In the NIST ThermoML archive (doi:10.1021/je034102r):
± gives the expanded uncertainty stated by the source.

Assay: molar heat capacity at saturation pressure
Settings: Small (less than 1 g) adiabatic calorimetry

CCCCn1cc[n+](C)c1.F[P-](F)(F)(F)(F)F [1-butyl-3-methylimidazolium hexafluorophosphate]
molar heat capacity [J/K/mol]
Settings	Crystal	Glass
5 K	1.007 ± 0.046	1.946 ± 0.066
5.09 K	–	2.049 ± 0.05
5.13 K	1.065 ± 0.033	–
5.36 K	–	2.336 ± 0.054
5.41 K	1.231 ± 0.036	–
5.59 K	–	2.627 ± 0.058
5.67 K	1.405 ± 0.038	–
5.85 K	–	2.997 ± 0.062
5.97 K	1.625 ± 0.042	–
6.14 K	–	3.411 ± 0.069
6.29 K	1.927 ± 0.046	–
6.47 K	–	3.839 ± 0.074
6.6 K	2.264 ± 0.051	–
6.82 K	–	4.454 ± 0.081
6.91 K	2.566 ± 0.055	–
7.15 K	–	4.943 ± 0.089
7.23 K	2.994 ± 0.06	–
7.49 K	–	5.596 ± 0.096
7.58 K	3.435 ± 0.066	–
7.84 K	–	6.275 ± 0.1
7.92 K	3.848 ± 0.072	–
8.21 K	–	6.958 ± 0.11
8.28 K	4.395 ± 0.079	–
8.61 K	–	7.772 ± 0.12
8.66 K	4.99 ± 0.086	–
9 K	–	8.63 ± 0.13
9.07 K	5.739 ± 0.096	–
9.41 K	–	9.587 ± 0.14
9.49 K	6.479 ± 0.1	–
9.82 K	–	10.46 ± 0.15
9.92 K	7.352 ± 0.11	–
10 K	7.487 ± 0.14	10.93 ± 0.2
10.27 K	–	11.64 ± 0.17
10.35 K	8.195 ± 0.12	–
10.75 K	9.005 ± 0.13	–
10.76 K	–	12.74 ± 0.17
11.18 K	10.04 ± 0.14	–
11.23 K	–	14.01 ± 0.19
11.74 K	11.29 ± 0.16	15.2 ± 0.2
12.29 K	–	16.65 ± 0.22
12.32 K	12.57 ± 0.17	–
12.81 K	–	18.03 ± 0.23
12.92 K	14.08 ± 0.18	–
13.36 K	–	19.55 ± 0.24
13.56 K	15.72 ± 0.2	–
13.99 K	–	21.2 ± 0.26
14.2 K	17.26 ± 0.22	–
14.65 K	–	23.01 ± 0.27
14.85 K	19.06 ± 0.23	–
15 K	19.41 ± 0.3	23.95 ± 0.36
15.35 K	–	24.94 ± 0.29
15.51 K	20.76 ± 0.24	–
16.07 K	–	26.85 ± 0.3
16.24 K	22.77 ± 0.26	–
16.81 K	–	28.88 ± 0.32
17 K	24.84 ± 0.27	–
17.63 K	–	31.14 ± 0.33
17.78 K	26.97 ± 0.29	–
18.5 K	–	33.53 ± 0.35
18.66 K	29.5 ± 0.31	–
19.36 K	–	35.93 ± 0.36
19.54 K	32.1 ± 0.32	–
20 K	33.34 ± 0.42	37.71 ± 0.47
20.17 K	–	38.13 ± 0.37
20.45 K	34.73 ± 0.34	–
21.05 K	–	40.62 ± 0.39
21.38 K	37.23 ± 0.35	–
22.07 K	–	43.51 ± 0.4
22.32 K	39.8 ± 0.37	–
23.08 K	–	46.05 ± 0.42
23.31 K	42.57 ± 0.38	–
24.15 K	–	49.07 ± 0.42
24.37 K	45.56 ± 0.39	–
25 K	47.15 ± 0.49	51.23 ± 0.53
25.25 K	–	51.82 ± 0.43
25.51 K	48.5 ± 0.41	–
26.28 K	–	54.6 ± 0.44
26.64 K	51.23 ± 0.41	–
27.38 K	–	57.25 ± 0.45
27.83 K	54.25 ± 0.42	–
28.63 K	–	60.1 ± 0.45
29.06 K	57.36 ± 0.42	–
29.99 K	–	63.37 ± 0.46
30 K	59.6 ± 0.4	63.41 ± 0.42
30.21 K	60.16 ± 0.37	–
31.43 K	–	66.52 ± 0.41
31.51 K	63.15 ± 0.39	–
32.95 K	–	70.07 ± 0.42
32.97 K	66.37 ± 0.41	–
34.47 K	69.5 ± 0.42	–
34.52 K	–	73.45 ± 0.44
35 K	70.66 ± 0.46	74.31 ± 0.47
36.07 K	72.74 ± 0.44	–
36.17 K	–	76.76 ± 0.46
37.71 K	76.12 ± 0.46	–
37.88 K	–	79.79 ± 0.47
39.38 K	79.31 ± 0.47	–
39.66 K	–	83.48 ± 0.5
40 K	80.48 ± 0.51	83.89 ± 0.5
41.07 K	82.46 ± 0.49	–
41.55 K	–	86.89 ± 0.5
42.76 K	85.47 ± 0.5	–
43.54 K	–	90.3 ± 0.5
44.47 K	88.38 ± 0.5	–
45 K	89.21 ± 0.58	92.46 ± 0.58
45.53 K	–	93.29 ± 0.58
46.22 K	91.38 ± 0.5	–
47.48 K	–	96.53 ± 0.58
48 K	93.87 ± 0.58	–
49.44 K	–	99.69 ± 0.58
49.81 K	96.36 ± 0.58	–
50 K	96.95 ± 0.58	100.6 ± 0.58
51.38 K	–	102.7 ± 0.58
51.62 K	99.36 ± 0.58	–
53.34 K	–	105.7 ± 0.58
53.48 K	101.9 ± 0.58	–
55.43 K	–	108.8 ± 0.67
55.49 K	104.4 ± 0.58	–
57.6 K	–	111.9 ± 0.67
57.62 K	106.9 ± 0.58	–
59.71 K	109.9 ± 0.67	–
59.75 K	–	114.9 ± 0.67
60 K	110.2 ± 0.67	115.6 ± 0.67
61.89 K	112.3 ± 0.67	117.8 ± 0.67
64.01 K	–	121.6 ± 0.67
64.13 K	115.1 ± 0.67	–
66.11 K	–	123.9 ± 0.75
66.36 K	118.1 ± 0.67	–
68.19 K	–	127.2 ± 0.75
68.68 K	120.7 ± 0.67	–
70 K	122 ± 0.75	129.2 ± 0.75
70.41 K	–	130 ± 0.75
71.13 K	123.1 ± 0.75	–
72.69 K	–	132.8 ± 0.75
73.64 K	125.8 ± 0.75	–
75.03 K	–	135.6 ± 0.75
76.05 K	128.6 ± 0.75	–
77.42 K	–	138.4 ± 0.75
78.39 K	130.8 ± 0.75	–
79.89 K	–	142.1 ± 0.83
80 K	132.7 ± 0.75	141.8 ± 0.83
80.75 K	133.5 ± 0.75	–
82.45 K	–	144.5 ± 0.83
83.19 K	136 ± 0.75	–
84.93 K	–	147.7 ± 0.83
85.74 K	138.7 ± 0.83	–
87.39 K	–	150.3 ± 0.83
88.31 K	141.4 ± 0.83	–
89.83 K	–	153.7 ± 0.83
90 K	142.9 ± 0.75	154.1 ± 0.83
90.82 K	143.8 ± 0.83	–
92.25 K	–	157.1 ± 0.83
93.26 K	146.3 ± 0.83	–
95.42 K	–	160.5 ± 0.92
95.87 K	149.1 ± 0.83	–
97.92 K	–	163.5 ± 0.92
98.65 K	151.7 ± 0.83	–
100 K	153.2 ± 0.83	166 ± 0.83
100.28 K	153.6 ± 0.83	–
100.38 K	–	166.5 ± 0.92
100.78 K	–	167.5 ± 0.92
101.35 K	154.9 ± 0.83	–
102.77 K	156.1 ± 0.83	–
103.17 K	–	170 ± 0.92
105.21 K	158.5 ± 0.83	–
105.51 K	–	172.9 ± 0.92
107.6 K	160.8 ± 0.92	–
107.81 K	–	175.4 ± 0.92
110 K	163.1 ± 0.83	177.9 ± 0.92
110.06 K	–	177.9 ± 1
